{"source": "patent US7317038B2", "about": "“Nerve regeneration promoters containing semaphorin inhibitor as the active ingredient” (Dainippon Sumitomo Pharma Co., Ltd., priority 2000, dated 2008)", "key": {"[1]": {"test_system": "spinal cord injury model adult rats", "test": "In vivo nerve regeneration after transection of the spinal nerve (cerebral cortex-spinal cord tract)", "settings": "rat; 0.6 μg/day for four consecutive weeks", "experimental": "Male Wister rats (10-week-old) were purchased from Charles River Japan, Inc. and bred under free feeding and water uptake in a dedicated breeding room. They were used in the experiment after about one week of pre-breeding. SPF-3059-1 was prepared to 0.1 mg/ml with PBS. PBS was used as a control. The agent was filled in an osmotic pressure pump (Alzet, model 2004, dosage for four weeks, flow rate 0.25 μl/hr). A cannula filled with the sample solution etc. was connected to the pump and pre-incubated in saline overnight at room temperature.\nA rat was intrapenitrially injected with pentbarbital (50 mg/kg). Skin and muscles in dorsal thoracic spinal cord region of the anesthetized rat were incised and the T8-T12 vertebras were exposed. Laminectomy was carried out for the T11 thoracic vertebra under the microscope. A pair of ophthalmologic scissors attached to the manipulator was punctured and inserted across the median line into the depth of 1.5 mm from the duramater surface, and the cerebral cortex-spinal cord pathway was incised and separated. The vertebra opening was filled with a spongel. Cannulation was performed from the T9 vertebra which was perforated with a surgical drill to expose the duramater. The part of the duramater, to which a cannula was to be inserted, was perforated with an injection needle and the silicon tube connected with the pump was inserted therein. […]"}, "[2]": {"test_system": "adult rat models for olfactory nerve axotomy", "test": "In vivo nerve regeneration after olfactory nerve axotomy", "settings": "for Positive section No. (which section from the vertex, average ± SE): HRP-positive glomerulus", "experimental": "Male Wister rats (6.5-week-old) were purchased from CHARLES RIVER JAPAN, INC. and bred under free feeding and water uptake in the dedicated breeding room. A sample solution was prepared by diluting SPF-3059-1 to lmg/ml with PBS and filled in an osmotic pressure pump (alzet 2004, ALZA co., USA). A pump filled with PBS was used as a control. The sample solution and the like were prepared on the day before the operation and the osmotic pressure pump was bathed in PBS and placed overnight at room temperature. Just before the operation, a L-cannula was connected to the one end of a silicon tube filled with the sample solution and the like, and the other end of the tube was connected to the pump. A rat was anesthetized with pentbarbital (50 mg/kg, intrapenitrially injected), and its head was fixed to the stereotaxic apparatus. The scalp was incised along the median and the cranium above the olfactory bulb was opened to expose the olfactory bulb (anterior part). In order to axotomize olfactory nerve, a knife (a razor was cut into 1.5 mm width) was inserted in between the olfactory bulb and the cribriform plate. The olfactory nerve which is projected on the upper olfactory bulb is axotomized by this handling. The L-cannula was fixed to the cranium-opening above the olfactory with surgical instant adhesive and dental cement so that the edge of cannula is located in the vicinity of the incision. The sample output was set to 6 μl (6 μg)/day. The pump was subcutaneously inserted in the dorsal neck and the incision was sutured. Then the animal was recovered.\nTwo and three weeks after the operation, the rat anesthetized with pentbarbital was laid on its back and injected with 100 μl of 1% WGA-HRP/PBS (TOYOBO) into the nasal cavity using a microsyringe. 24 hours after the HRP injection, the rat was further anesthetized with pentbarbital (50 mg/kg, intrapenitrially injected) and was thoracically incised. […]\nRegeneration of olfactory nerves was quantitatively assessed by observing in which horizontal section of the olfactory bulb from the vertex did HRP-positive glomerulus emerge. […]"}}}
{"smiles": "CC(=O)c1c(C)c(C(=O)C2COc3cc(O)c(O)c(C(=O)O)c3C2=O)cc2c(=O)c3c(C(=O)O)c(O)c(O)cc3oc12", "note": "(stereo not shown) [SPF-3059-1]", "values": [{"measurement": "nerve-regeneration promoting action after spinal nerve incision (DBA-positive fibers)", "setting": "[1]", "value": "has the nerve-regeneration promoting action"}, {"measurement": "in vivo nerve-regeneration promoting action in olfactory nerve axotomy (in words)", "setting": "[2]", "value": "marked nerve-regeneration promoting action"}, {"measurement": "Positive section No. (which section from the vertex, average ± SE)", "setting": "[2]; Week 2, 6 μg/day by osmotic pump near incision", "value": "8.3 ± 1.9"}, {"measurement": "Positive section No. (which section from the vertex, average ± SE)", "setting": "[2]; Week 3, 6 μg/day by osmotic pump near incision", "value": "5.2 ± 1.9"}]}
